21 compounds from patent US20080221060A1, “Therapeutic Compounds” (priority 2004, published 2008) can be followed below.

SMILES strings stand for the structures. Where two headings read alike, the source gives them in different places.

For orientation: Ki means a dissociation constant, usually derived from enzyme kinetics or from competition with a known ligand.

For the test, the target named is adenosine receptors (rat striatal membranes, [3H]-CGS21680) (Rattus norvegicus, UniProt P30543). Briefly: Ki from displacement of [3H]-CGS21680 in rat striatal membranes at pH 5.5 and pH 7.4. The following applies: 2 nM [3H]-CGS21680, 90 minutes at 22° C. Further details: from tissue; host or cells: rat striatum (membranes). It is filed as binding.
Setting [1] is: pH 5.5, read-out: (Ki) nM (pH 5.5).
Where [2] appears, read: pH 7.4, read-out: (Ki) nM (pH 7.4).

Chain of adenosine receptors (rat striatal membranes, [3H]-CGS21680) (P30543 whole entry): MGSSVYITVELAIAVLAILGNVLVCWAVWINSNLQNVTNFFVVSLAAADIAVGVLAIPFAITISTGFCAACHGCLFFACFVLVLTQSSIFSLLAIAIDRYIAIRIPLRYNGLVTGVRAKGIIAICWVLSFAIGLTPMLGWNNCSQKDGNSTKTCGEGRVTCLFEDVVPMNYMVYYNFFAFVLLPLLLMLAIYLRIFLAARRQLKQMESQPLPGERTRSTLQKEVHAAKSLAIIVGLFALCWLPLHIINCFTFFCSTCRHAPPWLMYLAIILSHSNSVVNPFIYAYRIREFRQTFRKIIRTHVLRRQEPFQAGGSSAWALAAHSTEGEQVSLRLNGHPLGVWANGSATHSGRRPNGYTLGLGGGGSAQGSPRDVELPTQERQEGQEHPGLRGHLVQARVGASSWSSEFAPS

As to `CCCC(=O)NC[C@H]1O[C@@H](n2cnc3c(N)ncnc32)[C@H](O)[C@@H]1O` [Compound 55], the inhibition constant Ki stood at 145 nM under setting [1] and 16900 nM under setting [2].

For `CCCCCCNc1nc(N)c2ncn([C@@H]3O[C@H](C(=O)NCCCC)[C@@H](O)[C@H]3O)c2n1` [Compound 54], the Ki is 0.3 nM under setting [1] and 540 nM under setting [2].

As for `COc1nc(N)c2ncn([C@@H]3O[C@H](C(=O)Nc4ccccc4)[C@@H](O)[C@H]3O)c2n1` [Compound 53], the Ki reads like this: under setting [1], 230 nM; under setting [2], 26100 nM.

With `OC[C@H]1O[C@@H](n2cnc3c(N4CCNCC4)ncnc32)[C@H](O)[C@@H]1O` [Compound 46], the Ki amounted to 38 nM under setting [1] and 5000 nM under setting [2].

With `Cc1nc2c(N)nc(NC3CCCC3)nc2n1[C@@H]1O[C@H](CO)[C@@H](O)[C@H]1O` [Compound 60], the Ki runs as follows: under setting [1], 49 nM; under setting [2], 2400 nM.

For `CC[C@H](C)Nc1nc(N)c2ncn(C3OC(CO)C(O)C3O)c2n1` (stereo partly drawn) [Compound 23], the Ki is 29 nM under setting [1] and 1400 nM under setting [2].

Turning to `Nc1nc(NC2CCCC2)nc2c1ncn2[C@@H]1O[C@H](CO)[C@@H](O)[C@H]1O` [Compound 29], the inhibitory constant (Ki) reads like this: under setting [1], 2 nM; under setting [2], 420 nM.

Take `Nc1nc(Oc2cc(F)ccc2F)nc2c1ncn2[C@@H]1O[C@H](CO)[C@@H](O)[C@H]1O` [Compound 9]: the Ki runs as follows: under setting [1], 16 nM; under setting [2], 2500 nM.

`Nc1nc(OCC2CCCC2)nc2c1ncn2[C@@H]1O[C@H](CO)[C@@H](O)[C@H]1O` [Compound 32]: the Ki is, setting by setting: under setting [1], 0.2 nM; under setting [2], 200 nM.

Regarding `CNc1ncnc2c1ncn2[C@@H]1O[C@H](C(=O)NC(C)C)[C@@H](O)[C@H]1O` [Compound 51], the Ki reads like this: under setting [1], 188 nM; under setting [2], 2440 nM.

Turning to `Nc1nc(Oc2ccccc2)nc2c1ncn2[C@@H]1O[C@H](CO)[C@@H](O)[C@H]1O` [Compound 6, 2-phenoxyadenosine], the Ki under setting [1] was determined as 71 nM and the Ki under setting [2] was found to be 2500 nM.

On to `Nc1nc(Oc2ccc3c(c2)CCC3)nc2c1ncn2[C@@H]1O[C@H](CO)[C@@H](O)[C@H]1O` [Compound 17], for which the Ki is, setting by setting: under setting [1], 12 nM; under setting [2], 760 nM.

On to `CC(C)NC(=O)[C@H]1O[C@@H](n2cnc3c(N)ncnc32)[C@H](O)[C@@H]1O` [Compound 49], for which the Ki under setting [1] stood at 5 nM and the Ki under setting [2] stood at 1930 nM.

Turning to `Cc1nc2c(N)nc(NC3CCCCC3)nc2n1[C@@H]1O[C@H](CO)[C@@H](O)[C@H]1O` [Compound 59], the Ki came to 31 nM under setting [1] and 3900 nM under setting [2].

Regarding `CCCCOc1nc(N)c2ncn([C@@H]3O[C@H](CO)[C@@H](O)[C@H]3O)c2n1` [Compound 4], the Ki turned out to be 11 nM under setting [1] and 280 nM under setting [2].

Regarding `CC(C)CCN(C)c1nc(N)c2ncn([C@@H]3O[C@H](CO)[C@@H](O)[C@H]3O)c2n1` [Compound 31], the Ki runs as follows: under setting [1], 26 nM; under setting [2], 4000 nM.

As for `Cc1ccc(Oc2nc(N)c3ncn([C@@H]4O[C@H](CO)[C@@H](O)[C@H]4O)c3n2)cc1` [Compound 16], the Ki reads like this: under setting [1], 3.4 nM; under setting [2], 720 nM.

`CCNC(=O)NC[C@H]1O[C@@H](n2cnc3c(N)ncnc32)[C@H](O)[C@@H]1O` [Compound 56]: the Ki was determined as 40 nM under setting [1] and 6570 nM under setting [2].

For the compound `Nc1nc(NC2CCCCC2)nc2c1ncn2[C@@H]1O[C@H](CO)[C@@H](O)[C@H]1O` [Compound 30, 2-cyclohexylamino adenosine], the Ki is, setting by setting: under setting [1], 0.4 nM; under setting [2], 1000 nM.

Regarding `Nc1nc(Oc2cccc(-c3ccccc3)c2)nc2c1ncn2[C@@H]1O[C@H](CO)[C@@H](O)[C@H]1O` [Compound 8], the Ki is 0.7 nM under setting [1] and 620 nM under setting [2].

For the compound `N#Cc1ccc(Oc2nc(N)c3ncn([C@@H]4O[C@H](CO)[C@@H](O)[C@H]4O)c3n2)cc1` [Compound 7], the Ki under setting [1] was 4 nM and the Ki under setting [2] came out at 1300 nM.
